Assay results reported in US20040006070A1, “Intraspinal continuous infusion of midazolam hydrochloride for the treatment of pain” (priority 2002, published 2004).
Counter-ions that a name gives are not always drawn.

Experiment: Bloodwork: complete blood count, electrolytes, extended blood chemistry
Assay type: in vivo, sheep
Conditions: for Total Bili: ref 0.14-0.32; for Creatinine: ref 1-2.7; for Albumin: ref 2.4-3; for K+: ref 3.9-5.4; for Phos: ref 5-7.3; for Total Prot: ref 6-7.9
Method: Indirect blood pressure, pulse recording, pain testing (mechanical stimulus device, cold and warm water baths see description in procedure) and weight were taken on days 1, 3, 7, 15, 22, 29, 36, and 43. Venous blood samples (15 ml drawn from the jugular vein with Vacutainer brand blood collection tubes) for complete blood count, electrolytes, and extended blood chemistry were drawn on days 1, 15, and 43 (mild procedure only light hand restraint necessary).

Cc1ncc2n1-c1ccc(Cl)cc1C(c1ccccc1F)=NC2 [Midazolam, midazolam hydrochloride]
Glucose (sheep #91, 15 mg/day, Day 1): 77 mg/dL | Hct (sheep #91, 15 mg/day, Day 1): 29.2% | Hgb (sheep #91, 15 mg/day, Day 1): 9.84 g/dL | MCH (sheep #91, 15 mg/day, Day 1): 10.7 pg | MCHC (sheep #91, 15 mg/day, Day 1): 33.7 g/dL | MCV (sheep #91, 15 mg/day, Day 1): 31.8 fL | Na+ (sheep #91, 15 mg/day, Day 1): 149 mEq/l | Platlet Count (sheep #91, 15 mg/day, Day 1): 996000 µL⁻¹ | RBC (sheep #91, 15 mg/day, Day 1): 9.18e+06 µL⁻¹ | WBC (sheep #91, 15 mg/day, Day 1): 7090 µL⁻¹ | Total Bili (sheep #91, 15 mg/day, Day 1): 0.1 mg/dL | Creatinine (sheep #91, 15 mg/day, Day 1): 1.6 mg/dL | Albumin (sheep #91, 15 mg/day, Day 1): 3.3 g/dL | K+ (sheep #91, 15 mg/day, Day 1): 4.9 mEq/l | Phos (sheep #91, 15 mg/day, Day 1): 6.2 mg/dL | Total Prot (sheep #91, 15 mg/day, Day 1): 6.1 g/dL | ALT (sheep #91, 15 mg/day, Day 15): 10 U/L | AST (sheep #91, 15 mg/day, Day 15): 50 U/L | Alk Phos (sheep #91, 15 mg/day, Day 15): 162 U/L | BUN (sheep #91, 15 mg/day, Day 15): 13 mg/dL | CPK (sheep #91, 15 mg/day, Day 15): 56 U/L | Cholesterol (sheep #91, 15 mg/day, Day 15): 56 mg/dL | Differential Count: Eosin (sheep #91, 15 mg/day, Day 15): 12% | Differential Count: Lymph (sheep #91, 15 mg/day, Day 15): 44% | Differential Count: Seg (sheep #91, 15 mg/day, Day 15): 44% | Gamma GT (sheep #91, 15 mg/day, Day 15): 60 U/L | Glucose (sheep #91, 15 mg/day, Day 15): 83 mg/dL | Hct (sheep #91, 15 mg/day, Day 15): 31.8% | Hgb (sheep #91, 15 mg/day, Day 15): 10.8 g/dL | MCH (sheep #91, 15 mg/day, Day 15): 10.8 pg | MCHC (sheep #91, 15 mg/day, Day 15): 34.0 g/dL | MCV (sheep #91, 15 mg/day, Day 15): 31.8 fL | Na+ (sheep #91, 15 mg/day, Day 15): 148 mEq/l | Platlet Count (sheep #91, 15 mg/day, Day 15): 848000 µL⁻¹ | RBC (sheep #91, 15 mg/day, Day 15): 1e+07 µL⁻¹ | WBC (sheep #91, 15 mg/day, Day 15): 5130 µL⁻¹ | Total Bili (sheep #91, 15 mg/day, Day 15): 0.0 mg/dL | Creatinine (sheep #91, 15 mg/day, Day 15): 1.3 mg/dL | Albumin (sheep #91, 15 mg/day, Day 15): 3.3 g/dL | K+ (sheep #91, 15 mg/day, Day 15): 4.4 mEq/l | Phos (sheep #91, 15 mg/day, Day 15): 6.1 mg/dL | Total Prot (sheep #91, 15 mg/day, Day 15): 6.2 g/dL | ALT (sheep #91, 15 mg/day, Day 43): 9 U/L | AST (sheep #91, 15 mg/day, Day 43): 63 U/L | Alk Phos (sheep #91, 15 mg/day, Day 43): 174 U/L | BUN (sheep #91, 15 mg/day, Day 43): 14 mg/dL | CPK (sheep #91, 15 mg/day, Day 43): 54 U/L | Cholesterol (sheep #91, 15 mg/day, Day 43): 66 mg/dL | Differential Count: Eosin (sheep #91, 15 mg/day, Day 43): 5% | Differential Count: Lymph (sheep #91, 15 mg/day, Day 43): 41% | Differential Count: Mono (sheep #91, 15 mg/day, Day 43): 2% | Differential Count: Seg (sheep #91, 15 mg/day, Day 43): 52% | Gamma GT (sheep #91, 15 mg/day, Day 43): 58 U/L | Glucose (sheep #91, 15 mg/day, Day 43): 81 mg/dL | Hct (sheep #91, 15 mg/day, Day 43): 36.3% | Hgb (sheep #91, 15 mg/day, Day 43): 12.2 g/dL | MCH (sheep #91, 15 mg/day, Day 43): 10.4 pg | MCHC (sheep #91, 15 mg/day, Day 43): 33.6 g/dL | MCV (sheep #91, 15 mg/day, Day 43): 30.9 fL | Na+ (sheep #91, 15 mg/day, Day 43): 147 mEq/l | Platlet Count (sheep #91, 15 mg/day, Day 43): 805000 µL⁻¹ | RBC (sheep #91, 15 mg/day, Day 43): 1.18e+07 µL⁻¹ | WBC (sheep #91, 15 mg/day, Day 43): 5330 µL⁻¹ | Total Bili (sheep #91, 15 mg/day, Day 43): 0.1 mg/dL | Creatinine (sheep #91, 15 mg/day, Day 43): 1.5 mg/dL | Albumin (sheep #91, 15 mg/day, Day 43): 3.6 g/dL | K+ (sheep #91, 15 mg/day, Day 43): 4.6 mEq/l | Phos (sheep #91, 15 mg/day, Day 43): 7.3 mg/dL | Total Prot (sheep #91, 15 mg/day, Day 43): 6.4 g/dL | ALT (sheep #457, 15 mg/day, Day 1): 10 U/L | AST (sheep #457, 15 mg/day, Day 1): 85 U/L | Alk Phos (sheep #457, 15 mg/day, Day 1): 43 U/L | BUN (sheep #457, 15 mg/day, Day 1): 14 mg/dL | CPK (sheep #457, 15 mg/day, Day 1): 122 U/L | Cholesterol (sheep #457, 15 mg/day, Day 1): 59 mg/dL | Differential Count: Eosin (sheep #457, 15 mg/day, Day 1): 1% | Differential Count: Lymph (sheep #457, 15 mg/day, Day 1): 26% | Differential Count: Seg (sheep #457, 15 mg/day, Day 1): 73% | Gamma GT (sheep #457, 15 mg/day, Day 1): 59 U/L | Glucose (sheep #457, 15 mg/day, Day 1): 91 mg/dL | Hct (sheep #457, 15 mg/day, Day 1): 34.4% | Hgb (sheep #457, 15 mg/day, Day 1): 10.5 g/dL | MCH (sheep #457, 15 mg/day, Day 1): 10.2 pg | MCHC (sheep #457, 15 mg/day, Day 1): 30.5 g/dL | MCV (sheep #457, 15 mg/day, Day 1): 33.4 fL | Na+ (sheep #457, 15 mg/day, Day 1): 147 mEq/l | Platlet Count (sheep #457, 15 mg/day, Day 1): 276000 µL⁻¹ | RBC (sheep #457, 15 mg/day, Day 1): 8.68e+06 µL⁻¹ | WBC (sheep #457, 15 mg/day, Day 1): 11900 µL⁻¹ | Total Bili (sheep #457, 15 mg/day, Day 1): 0.1 mg/dL | Creatinine (sheep #457, 15 mg/day, Day 1): 1.1 mg/dL | Albumin (sheep #457, 15 mg/day, Day 1): 2.8 g/dL | K+ (sheep #457, 15 mg/day, Day 1): 4.4 mEq/l | Phos (sheep #457, 15 mg/day, Day 1): 6.2 mg/dL | Total Prot (sheep #457, 15 mg/day, Day 1): 5.0 g/dL | ALT (sheep #457, 15 mg/day, Day 15): 14 U/L | AST (sheep #457, 15 mg/day, Day 15): 55 U/L | Alk Phos (sheep #457, 15 mg/day, Day 15): 93 U/L | BUN (sheep #457, 15 mg/day, Day 15): 20 mg/dL | CPK (sheep #457, 15 mg/day, Day 15): 73 U/L | Cholesterol (sheep #457, 15 mg/day, Day 15): 65 mg/dL | Differential Count: Lymph (sheep #457, 15 mg/day, Day 15): 71% | Differential Count: Mono (sheep #457, 15 mg/day, Day 15): 3% | Differential Count: Seg (sheep #457, 15 mg/day, Day 15): 24% | Gamma GT (sheep #457, 15 mg/day, Day 15): 72 U/L | Glucose (sheep #457, 15 mg/day, Day 15): 60 mg/dL | Hct (sheep #457, 15 mg/day, Day 15): 35.4% | Hgb (sheep #457, 15 mg/day, Day 15): 10.9 g/dL | MCH (sheep #457, 15 mg/day, Day 15): 10.6 pg | MCHC (sheep #457, 15 mg/day, Day 15): 30.8 g/dL | MCV (sheep #457, 15 mg/day, Day 15): 34.4 fL | Na+ (sheep #457, 15 mg/day, Day 15): 150 mEq/l | Platlet Count (sheep #457, 15 mg/day, Day 15): 45000 µL⁻¹ | RBC (sheep #457, 15 mg/day, Day 15): 8.72e+06 µL⁻¹ | WBC (sheep #457, 15 mg/day, Day 15): 15400 µL⁻¹ | Total Bili (sheep #457, 15 mg/day, Day 15): 0.1 mg/dL | Creatinine (sheep #457, 15 mg/day, Day 15): 1.1 mg/dL | Albumin (sheep #457, 15 mg/day, Day 15): 3.3 g/dL | K+ (sheep #457, 15 mg/day, Day 15): 4.4 mEq/l | Phos (sheep #457, 15 mg/day, Day 15): 4.7 mg/dL | Total Prot (sheep #457, 15 mg/day, Day 15): 5.9 g/dL | ALT (sheep #457, 15 mg/day, Day 43): 12 U/L | AST (sheep #457, 15 mg/day, Day 43): 69 U/L | Alk Phos (sheep #457, 15 mg/day, Day 43): 105 U/L | BUN (sheep #457, 15 mg/day, Day 43): 15 mg/dL | CPK (sheep #457, 15 mg/day, Day 43): 51 U/L | Cholesterol (sheep #457, 15 mg/day, Day 43): 88 mg/dL | Differential Count: Eosin (sheep #457, 15 mg/day, Day 43): 7% | Differential Count: Lymph (sheep #457, 15 mg/day, Day 43): 68% | Differential Count: Mono (sheep #457, 15 mg/day, Day 43): 2% | Differential Count: Seg (sheep #457, 15 mg/day, Day 43): 23% | Gamma GT (sheep #457, 15 mg/day, Day 43): 61 U/L | Glucose (sheep #457, 15 mg/day, Day 43): 67 mg/dL | Hct (sheep #457, 15 mg/day, Day 43): 40.4% | Hgb (sheep #457, 15 mg/day, Day 43): 12.6 g/dL | MCH (sheep #457, 15 mg/day, Day 43): 11.5 pg | MCHC (sheep #457, 15 mg/day, Day 43): 31.2 g/dL | MCV (sheep #457, 15 mg/day, Day 43): 33.7 fL | Na+ (sheep #457, 15 mg/day, Day 43): 145 mEq/l | RBC (sheep #457, 15 mg/day, Day 43): 1.098e+07 µL⁻¹ | WBC (sheep #457, 15 mg/day, Day 43): 11200 µL⁻¹ | Total Bili (sheep #457, 15 mg/day, Day 43): 0.1 mg/dL | Creatinine (sheep #457, 15 mg/day, Day 43): 1.4 mg/dL | Albumin (sheep #457, 15 mg/day, Day 43): 3.3 g/dL | K+ (sheep #457, 15 mg/day, Day 43): 4.9 mEq/l | Phos (sheep #457, 15 mg/day, Day 43): 5.9 mg/dL | Total Prot (sheep #457, 15 mg/day, Day 43): 5.7 g/dL | ALT (sheep #473, 3 mg/day, Day 1): 22 U/L
